# US20260042731A1, “(2,4-DICHLOROPHENOXY)ACETIC ACID ANALOGS” (CORTEVA AGRISCIENCE LLC, priority 2022, published 2026)
# Where two headings read alike, the source gives them in different places.
# What was measured:
# [1] = test system: glyphosate resistant Conyza canadensis (L.) (ERICA), horseweed; assay: Postemergence herbicide evaluation, growth of Conyza canadensis (ERICA); type: in vivo; conditions: Erigeron canadensis, post-emergence, percent reduction in plant size vs untreated control, read-out: Ave. ERICA; for pest or weed control at 280 g/ha: 280 g ae/ha; for pest or weed control at 560 g/ha: 560 g ae/ha
# [2] = test system: Ambrosia artemisiifolia (AMBEL), common ragweed; assay: Postemergence herbicide evaluation, growth of Ambrosia artemisiifolia (AMBEL); type: in vivo; conditions: Ambrosia artemisiifolia, post-emergence, percent reduction in plant size vs untreated control, read-out: AVE. AMBEL; for pest or weed control at 280 g/ha: 280 g ae/ha; for pest or weed control at 560 g/ha: 560 g ae/ha
# [3] = Volatility of compounds measured by thermogravimetric analysis (TGA); type: physicochemical
# [4] = test system: Amaranthus rudis (AMATA), tall water hemp; assay: Postemergence herbicide evaluation, growth of Amaranthus rudis (AMATA); type: in vivo; conditions: Amaranthus tuberculatus, post-emergence, percent reduction in plant size vs untreated control, read-out: Ave. AMATA; for pest or weed control at 280 g/ha: 280 g ae/ha; for pest or weed control at 560 g/ha: 560 g ae/ha
# [5] = test system: Abutilon theophrasti (ABUTH), velvetleaf; assay: Postemergence herbicide evaluation, growth of Abutilon theophrasti (ABUTH); type: in vivo; conditions: Abutilon theophrasti, post-emergence, percent reduction in plant size vs untreated control, read-out: AVE. ABUTH; for pest or weed control at 280 g/ha: 280 g ae/ha; for pest or weed control at 560 g/ha: 560 g ae/ha
# [6] = test system: Chenopodium album (CHEAL), common lambsquarters; assay: Postemergence herbicide evaluation, growth of Chenopodium album (CHEAL); type: in vivo; conditions: Chenopodium album, post-emergence, percent reduction in plant size vs untreated control, read-out: Ave. CHEAL; for pest or weed control at 280 g/ha: 280 g ae/ha; for pest or weed control at 560 g/ha: 560 g ae/ha
# [7] = test system: weeds ABUTH, AMATA, AMBEL, CHEAL, ERICA; assay: Postemergence herbicide evaluation, overall average % weed control across ABUTH, AMATA, AMBEL, CHEAL and ERICA; type: in vivo; conditions: post-emergence, average over five weeds, read-out: Overall Ave % Weed Control; for pest or weed control at 280 g/ha: 280 g ae/ha; for pest or weed control at 560 g/ha: 560 g ae/ha
Compound,"pest or weed control at 280 g/ha ([1]; 168 h, 7 DAA)","pest or weed control at 560 g/ha ([1]; 168 h, 7 DAA)","pest or weed control at 280 g/ha ([1]; 336 h, 14 DAA)","pest or weed control at 560 g/ha ([1]; 336 h, 14 DAA)","pest or weed control at 280 g/ha ([1]; 504 h, 21 DAA)","pest or weed control at 560 g/ha ([1]; 504 h, 21 DAA)","pest or weed control at 280 g/ha ([2]; 168 h, 7 DAA)","pest or weed control at 560 g/ha ([2]; 168 h, 7 DAA)","pest or weed control at 280 g/ha ([2]; 336 h, 14 DAA)","pest or weed control at 560 g/ha ([2]; 336 h, 14 DAA)","pest or weed control at 280 g/ha ([2]; 504 h, 21 DAA)","pest or weed control at 560 g/ha ([2]; 504 h, 21 DAA)","TGA Data (rate of weight loss, volatility) [3]","pest or weed control at 280 g/ha ([4]; 168 h, 7 DAA)","pest or weed control at 560 g/ha ([4]; 168 h, 7 DAA)","pest or weed control at 280 g/ha ([4]; 336 h, 14 DAA)","pest or weed control at 560 g/ha ([4]; 336 h, 14 DAA)","pest or weed control at 280 g/ha ([4]; 504 h, 21 DAA)","pest or weed control at 560 g/ha ([4]; 504 h, 21 DAA)","pest or weed control at 280 g/ha ([5]; 168 h, 7 DAA)",further results
C=CCONC(=O)COc1ccc(Cl)cc1Cl [Compound D33],82.5%,77.5%,99.5%,100%,99.5%,97.5%,86%,80%,96%,90%,100%,100%,0.34 µg/min,92.5%,92%,92.5%,92.5%,95%,92.5%,85%,"pest or weed control at 560 g/ha ([5]; 168 h, 7 DAA): 92.5%; pest or weed control at 280 g/ha ([5]; 336 h, 14 DAA): 98.5%; pest or weed control at 560 g/ha ([5]; 336 h, 14 DAA): 99.5%; pest or weed control at 280 g/ha ([5]; 504 h, 21 DAA): 100%; pest or weed control at 560 g/ha ([5]; 504 h, 21 DAA): 100%; pest or weed control at 280 g/ha ([6]; 168 h, 7 DAA): 82.5%; pest or weed control at 560 g/ha ([6]; 168 h, 7 DAA): 46.5%; pest or weed control at 280 g/ha ([6]; 336 h, 14 DAA): 98%; pest or weed control at 560 g/ha ([6]; 336 h, 14 DAA): 92.5%; pest or weed control at 280 g/ha ([6]; 504 h, 21 DAA): 96.5%; pest or weed control at 560 g/ha ([6]; 504 h, 21 DAA): 99%; pest or weed control at 280 g/ha ([7]; 168 h, 7 DAA): 85.7%; pest or weed control at 560 g/ha ([7]; 168 h, 7 DAA): 77.7%; pest or weed control at 280 g/ha ([7]; 336 h, 14 DAA): 96.9%; pest or weed control at 560 g/ha ([7]; 336 h, 14 DAA): 94.9%; pest or weed control at 280 g/ha ([7]; 504 h, 21 DAA): 98.2%; pest or weed control at 560 g/ha ([7]; 504 h, 21 DAA): 97.8%"
O=C(COc1ccc(Cl)cc1Cl)Nc1ccccn1 [Compound D28],82.5%,82.5%,99.5%,97.5%,99.5%,98.5%,75%,85%,90%,100%,100%,100%,0.06 µg/min,80%,98%,96%,87.5%,81.5%,100%,77.5%,"pest or weed control at 560 g/ha ([5]; 168 h, 7 DAA): 72.5%; pest or weed control at 280 g/ha ([5]; 336 h, 14 DAA): 96.5%; pest or weed control at 560 g/ha ([5]; 336 h, 14 DAA): 97.5%; pest or weed control at 280 g/ha ([5]; 504 h, 21 DAA): 100%; pest or weed control at 560 g/ha ([5]; 504 h, 21 DAA): 100%; pest or weed control at 280 g/ha ([6]; 168 h, 7 DAA): 80%; pest or weed control at 560 g/ha ([6]; 168 h, 7 DAA): 77.5%; pest or weed control at 280 g/ha ([6]; 336 h, 14 DAA): 97%; pest or weed control at 560 g/ha ([6]; 336 h, 14 DAA): 96.5%; pest or weed control at 280 g/ha ([6]; 504 h, 21 DAA): 100%; pest or weed control at 560 g/ha ([6]; 504 h, 21 DAA): 96.5%; pest or weed control at 280 g/ha ([7]; 168 h, 7 DAA): 79%; pest or weed control at 560 g/ha ([7]; 168 h, 7 DAA): 83.1%; pest or weed control at 280 g/ha ([7]; 336 h, 14 DAA): 95.8%; pest or weed control at 560 g/ha ([7]; 336 h, 14 DAA): 95.8%; pest or weed control at 280 g/ha ([7]; 504 h, 21 DAA): 96.2%; pest or weed control at 560 g/ha ([7]; 504 h, 21 DAA): 99%"
O=C(COc1ccc(Cl)cc1Cl)NOCc1ccc(Cl)cc1 [Compound D16],72.5%,80%,92.5%,97.5%,100%,99%,77.5%,72.5%,75%,87.5%,100%,100%,0.03658 µg/min,75%,75%,92.5%,92.5%,85%,92.5%,65%,"pest or weed control at 560 g/ha ([5]; 168 h, 7 DAA): 27.5%; pest or weed control at 280 g/ha ([5]; 336 h, 14 DAA): 72.5%; pest or weed control at 560 g/ha ([5]; 336 h, 14 DAA): 37.5%; pest or weed control at 280 g/ha ([5]; 504 h, 21 DAA): 80%; pest or weed control at 560 g/ha ([5]; 504 h, 21 DAA): 45%; pest or weed control at 280 g/ha ([6]; 168 h, 7 DAA): 80%; pest or weed control at 560 g/ha ([6]; 168 h, 7 DAA): 82.5%; pest or weed control at 280 g/ha ([6]; 336 h, 14 DAA): 94%; pest or weed control at 560 g/ha ([6]; 336 h, 14 DAA): 92.5%; pest or weed control at 280 g/ha ([6]; 504 h, 21 DAA): 97.5%; pest or weed control at 560 g/ha ([6]; 504 h, 21 DAA): 100%; pest or weed control at 280 g/ha ([7]; 168 h, 7 DAA): 74%; pest or weed control at 560 g/ha ([7]; 168 h, 7 DAA): 67.5%; pest or weed control at 280 g/ha ([7]; 336 h, 14 DAA): 85.3%; pest or weed control at 560 g/ha ([7]; 336 h, 14 DAA): 81.5%; pest or weed control at 280 g/ha ([7]; 504 h, 21 DAA): 92.5%; pest or weed control at 560 g/ha ([7]; 504 h, 21 DAA): 87.3%"
